# Literature values in article PMC9329312, “Decoding kinase-adverse event associations for small molecule kinase inhibitors” (Nature Communications, 2022).
# Details: ref FAERS
structure (smiles),measurement,value
CCOc1cc2ncc(C#N)c(Nc3ccc(OCc4ccccn4)c(Cl)c3)c2cc1NC(=O)/C=C/CN(C)C [neratinib],"Drug resistance, % of Cases",0.15%
same,"Drug titration, % of Cases",2.1%
same,"Dry eye, % of Cases",0.3%
same,"Dry mouth, % of Cases",2.7%
same,"Dry skin, % of Cases",2.0%
same,"Dry throat, % of Cases",0.075%
same,"Duodenal ulcer, % of Cases",0.15%
same,"Dysarthria, % of Cases",0.075%
same,"Dysgeusia, % of Cases",0.45%
same,"Dyspepsia, % of Cases",4.4%
same,"Dysphagia, % of Cases",0.5%
same,"Dysphemia, % of Cases",0.075%
same,"Dysphonia, % of Cases",0.15%
same,"Dyspnoea exertional, % of Cases",0.075%
same,"Dyspnoea, % of Cases",1.7%
same,"Dysstasia, % of Cases",0.075%
same,"Dysuria, % of Cases",0.75%
same,"Ear infection, % of Cases",0.15%
same,"Ear pain, % of Cases",0.075%
same,"Early satiety, % of Cases",0.225%
same,"Eating disorder, % of Cases",0.15%
same,"Ecchymosis, % of Cases",0.075%
same,"Eczema, % of Cases",0.075%
same,"Ejection fraction decreased, % of Cases",0.15%
same,"Electrocardiogram QT prolonged, % of Cases",0.075%
same,"Electrolyte imbalance, % of Cases",0.225%
same,"Emergency care, % of Cases",0.7%
same,"Energy increased, % of Cases",0.075%
same,"Enteritis, % of Cases",0.075%
same,"Eosinophil count increased, % of Cases",0.075%
same,"Epinephrine abnormal, % of Cases",0.075%
same,"Epistaxis, % of Cases",1.2%
same,"Eructation, % of Cases",0.375%
same,"Erythema, % of Cases",0.5%
same,"Escherichia sepsis, % of Cases",0.075%
same,"Escherichia urinary tract infection, % of Cases",0.075%
same,"Exfoliative rash, % of Cases",0.075%
same,"Eye discharge, % of Cases",0.225%
same,"Eye infection, % of Cases",0.075%
same,"Eye irritation, % of Cases",0.075%
same,"Eye pain, % of Cases",0.075%
same,"Eye pruritus, % of Cases",0.15%
same,"Eyelid margin crusting, % of Cases",0.075%
same,"Facial pain, % of Cases",0.075%
same,"Facial paralysis, % of Cases",0.075%
same,"Faecaloma, % of Cases",0.075%
same,"Faeces discoloured, % of Cases",0.075%
same,"Faeces hard, % of Cases",0.075%
same,"Faeces pale, % of Cases",0.225%
same,"Faeces soft, % of Cases",0.45%
same,"Failure to thrive, % of Cases",0.075%
same,"Fall, % of Cases",0.75%
same,"Fatigue, % of Cases",25.2%
same,"Febrile neutropenia, % of Cases",0.075%
same,"Feeding disorder, % of Cases",0.375%
same,"Feeling abnormal, % of Cases",1.5%
same,"Feeling jittery, % of Cases",0.15%
same,"Fibromyalgia, % of Cases",0.075%
same,"Flank pain, % of Cases",0.075%
same,"Flatulence, % of Cases",1.7%
same,"Fluid retention, % of Cases",0.225%
same,"Flushing, % of Cases",0.075%
same,"Food aversion, % of Cases",0.075%
same,"Food craving, % of Cases",0.075%
same,"Food poisoning, % of Cases",0.075%
same,"Fracture, % of Cases",0.075%
same,"Frustration tolerance decreased, % of Cases",0.075%
same,"Full blood count abnormal, % of Cases",0.225%
same,"Fungal infection, % of Cases",0.075%
same,"Furuncle, % of Cases",0.075%
same,"Gait disturbance, % of Cases",0.5%
same,"Gait inability, % of Cases",0.075%
same,"Gastric cancer stage IV, % of Cases",0.075%
same,"Gastric dilatation, % of Cases",0.075%
same,"Gastric disorder, % of Cases",0.3%
same,"Gastric neoplasm, % of Cases",0.075%
same,"Gastric ulcer haemorrhage, % of Cases",0.075%
same,"Gastritis, % of Cases",0.3%
same,"Gastroenteritis norovirus, % of Cases",0.075%
same,"Gastroenteritis viral, % of Cases",0.375%
same,"Gastroenteritis, % of Cases",0.075%
same,"Gastrointestinal disorder, % of Cases",0.225%
same,"Gastrointestinal haemorrhage, % of Cases",0.075%
same,"Gastrointestinal infection, % of Cases",0.075%
same,"Gastrointestinal perforation, % of Cases",0.075%
same,"Gastrointestinal sounds abnormal, % of Cases",0.5%
same,"Gastrooesophageal reflux disease, % of Cases",2.7%
same,"Gastrostomy, % of Cases",0.075%
same,"Gingival bleeding, % of Cases",0.075%
same,"Gingivitis, % of Cases",0.075%
same,"Glomerular filtration rate decreased, % of Cases",0.225%
same,"Glossodynia, % of Cases",0.075%
same,"Glycosylated haemoglobin increased, % of Cases",0.075%
same,"Gout, % of Cases",0.075%
same,"Groin pain, % of Cases",0.075%
same,"Haematemesis, % of Cases",0.3%
same,"Haematochezia, % of Cases",0.6%
same,"Haematocrit decreased, % of Cases",0.075%
same,"Haemoglobin abnormal, % of Cases",0.075%
same,"Haemoglobin decreased, % of Cases",0.45%
same,"Haemorrhage, % of Cases",0.375%
same,"Haemorrhoidal haemorrhage, % of Cases",0.075%
same,"Haemorrhoids, % of Cases",0.15%
same,"Hair growth abnormal, % of Cases",0.15%
same,"Hair growth rate abnormal, % of Cases",0.075%
same,"Hair texture abnormal, % of Cases",0.075%
same,"Hallucination, % of Cases",0.075%
same,"Head and neck cancer, % of Cases",0.075%
same,"Head discomfort, % of Cases",0.075%
same,"Headache, % of Cases",5.4%
same,"Heart rate decreased, % of Cases",0.075%
same,"Heart rate increased, % of Cases",0.5%
same,"Helicobacter infection, % of Cases",0.075%
same,"Hepatic cyst, % of Cases",0.075%
same,"Hepatic enzyme abnormal, % of Cases",0.075%
same,"Hepatic enzyme increased, % of Cases",1.5%
same,"Hepatic failure, % of Cases",0.15%
same,"Hepatic function abnormal, % of Cases",0.075%
same,"Hepatic steatosis, % of Cases",0.075%
same,"Hepatitis, % of Cases",0.3%
same,"Hepatomegaly, % of Cases",0.075%
same,"Hepatotoxicity, % of Cases",0.075%
same,"Hernia, % of Cases",0.075%
same,"Herpes zoster, % of Cases",0.15%
same,"Hiccups, % of Cases",0.15%
same,"Hip arthroplasty, % of Cases",0.075%
same,"Hordeolum, % of Cases",0.15%
same,"Hospice care, % of Cases",0.7%
same,"Hospitalisation, % of Cases",5.3%
same,"Hot flush, % of Cases",0.6%
same,"Human epidermal growth factor receptor negative, % of Cases",0.075%
same,"Hydrocephalus, % of Cases",0.075%
same,"Hyperbilirubinaemia, % of Cases",0.075%
same,"Hyperchlorhydria, % of Cases",0.15%
same,"Hyperglycaemia, % of Cases",0.225%
same,"Hyperhidrosis, % of Cases",0.075%
same,"Hypersensitivity, % of Cases",0.5%
same,"Hypersomnia, % of Cases",0.075%
same,"Hypertension, % of Cases",0.15%
same,"Hypoaesthesia oral, % of Cases",0.15%
same,"Hypoaesthesia, % of Cases",1.0%
same,"Hypogeusia, % of Cases",0.075%
same,"Hypokalaemia, % of Cases",0.45%
same,"Hypomagnesaemia, % of Cases",0.075%
same,"Hyponatraemia, % of Cases",0.075%
same,"Hypophagia, % of Cases",0.15%
same,"Hypophosphataemia, % of Cases",0.075%
same,"Hypotension, % of Cases",0.6%
same,"Hypovolaemia, % of Cases",0.075%
same,"Hypoxia, % of Cases",0.15%
same,"Hysterectomy, % of Cases",0.15%
same,"Illness, % of Cases",1.7%
same,"Impaired driving ability, % of Cases",0.075%
same,"Impaired healing, % of Cases",0.15%
same,"Impaired quality of life, % of Cases",0.375%
same,"Implantable defibrillator insertion, % of Cases",0.075%
same,"Inappropriate schedule of product administration, % of Cases",0.45%
same,"Incision site abscess, % of Cases",0.075%
same,"Incorrect dosage administered, % of Cases",0.075%
same,"Incorrect dose administered, % of Cases",1.7%
same,"Increased appetite, % of Cases",0.075%
same,"Infection, % of Cases",0.6%
same,"Influenza like illness, % of Cases",0.3%
same,"Influenza, % of Cases",0.7%
same,"Infrequent bowel movements, % of Cases",0.075%
same,"Insomnia, % of Cases",1.2%
same,"Intensive care, % of Cases",0.075%
same,"Intentional dose omission, % of Cases",0.225%
same,"Intentional product use issue, % of Cases",0.15%
same,"Intentional underdose, % of Cases",0.15%
same,"Intervertebral disc protrusion, % of Cases",0.075%
same,"Intestinal haemorrhage, % of Cases",0.075%
same,"Intestinal obstruction, % of Cases",0.075%
